What was measured:
[1] = compound: T1, CCOc1cc2ncc(C#N)c(Nc3ccc(OCc4ccccn4)c(Cl)c3)c2cc1NC(=O)/C=C/CN(C)C [Neratinib/HKI272]; test: GR value, 72 h; higher = faster growth (1 = untreated, <0 = killing);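 also: breast cancer and non-malignant breast epithelial lines, nine half-log doses, viable cells counted by Hoechst and LIVE/DEAD dye imaging versus time-zero plates and DMSO controls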
[2] = compound: T2, CN1CC[C@H](c2c(O)cc(O)c3c(=O)cc(-c4ccccc4Cl)oc23)[C@H](O)C1 [Flavopiridol]; test: as above
[3] = compound: CN(C)C/C=C/C(=O)Nc1ccc(C(=O)N2CCC[C@@H](Nc3ncc(Cl)c(-c4c[nH]c5ccccc45)n3)C2)cc1 [THZ531]; test: increase in dead-cell fraction, 72 h; higher = more death;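 also: breast cancer cell lines in 384-well plates, stained with Hoechst plus LIVE/DEAD far red dye and imaged, cells above an LDR intensity threshold counted dead, Hoechst-negative corpses included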
[4] = compound: CC(=O)c1c(C)c2cnc(Nc3ccc(N4CCN(CCOCCOCCOCCNC(=O)COc5cccc6c5C(=O)N(C5CCC(=O)NC5=O)C6=O)CC4)cn3)nc2n(C2CCCC2)c1=O [BSJ-03-123]; test: as above
[5] = compound: CC(=O)c1c(C)c2cnc(Nc3ccc(N4CCNCC4)cn3)nc2n(C2CCCC2)c1=O; test: as above
[6] = compound: CCc1cnn2c(NCc3ccc[n+]([O-])c3)cc(N3CCCC[C@H]3CCO)nc12; test: as above
[7] = compound: T1, Neratinib/HKI272; test: as above
[8] = compound: C=CC(=O)Nc1ccc(C(=O)Nc2[nH]nc3c2CN(C(=O)N[C@H](CN(C)C)c2ccccc2)C3(C)C)cc1 [YKL-5-124]; test: as above
[9] = compound: CN(C)C/C=C/C(=O)Nc1ccc(C(=O)Nc2cccc(Nc3ncc(Cl)c(-c4c[nH]c5ccccc45)n3)c2)cc1 [THZ1]; test: as above
[10] = compound: CN(C)C(=O)c1cc2cnc(Nc3ccc(N4CCNCC4)cn3)nc2n1C1CCCC1 [LEE011/Ribociclib]; test: as above
[11] = compound: T2, Flavopiridol; test: as above
[12] = compound: CCN1CCN(Cc2ccc(Nc3ncc(F)c(-c4cc(F)c5nc(C)n(C(C)C)c5c4)n3)nc2)CC1; test: as above

MDAMB330 showed a GR value ([1]; 0.0003162 µM) of 0.967 GR, a GR value ([1]; 0.001 µM) of 0.831 GR and a GR value ([1]; 0.003162 µM) of 0.218 GR. The GR value ([1]; 0.01 µM) was -0.306 GR, the GR value ([1]; 0.03162 µM) was -0.546 GR and the GR value ([1]; 0.1 µM) was -0.592 GR. For the same cell line, the GR value ([1]; 0.3162 µM) was -0.599 GR, the GR value ([1]; 1 µM) was -0.656 GR and the GR value ([1]; 3.162 µM) was -0.62 GR. It also gave a GR value ([2]; 0.0001 µM) of 0.986 GR, a GR value ([2]; 0.0003162 µM) of 0.935 GR and a GR value ([2]; 0.001 µM) of 1.03 GR. The GR value ([2]; 0.003162 µM) was 1.01 GR, the GR value ([2]; 0.01 µM) was 0.911 GR and the GR value ([2]; 0.03162 µM) was 0.85 GR. The GR value ([2]; 0.1 µM) was 0.735 GR, the GR value ([2]; 0.3162 µM) was 0.285 GR and the GR value ([2]; 1 µM) was -0.892 GR. For the same cell line, the “increase in dead-cell fraction” value ([3]; 0.0001 µM) was 0.0039, the “increase in dead-cell fraction” value ([3]; 0.0003162 µM) was -0.0007 and the “increase in dead-cell fraction” value ([3]; 0.001 µM) was 0.0004. For the same cell line, the “increase in dead-cell fraction” value ([3]; 0.003162 µM) was 0.0018, the “increase in dead-cell fraction” value ([3]; 0.01 µM) was 0.0041 and the “increase in dead-cell fraction” value ([3]; 0.03162 µM) was 0.0164. For the same cell line, the “increase in dead-cell fraction” value ([3]; 0.1 µM) was 0.664, the “increase in dead-cell fraction” value ([3]; 0.3162 µM) was 0.519 and the “increase in dead-cell fraction” value ([3]; 1 µM) was 0.413. The “increase in dead-cell fraction” value ([4]; 0.001 µM) was 0.0018, the “increase in dead-cell fraction” value ([4]; 0.003162 µM) was 0.0001 and the “increase in dead-cell fraction” value ([4]; 0.01 µM) was 0.0015. For the same cell line, the “increase in dead-cell fraction” value ([4]; 0.03162 µM) was 0.003, the “increase in dead-cell fraction” value ([4]; 0.1 µM) was 0.0019 and the “increase in dead-cell fraction” value ([4]; 0.3162 µM) was 0.0031. For the same cell line, the “increase in dead-cell fraction” value ([4]; 1 µM) was 0.0019, the “increase in dead-cell fraction” value ([4]; 3.162 µM) was 0.0034 and the “increase in dead-cell fraction” value ([4]; 10 µM) was 0.0354. The “increase in dead-cell fraction” value ([5]; 0.0003162 µM) was -0.001, the “increase in dead-cell fraction” value ([5]; 0.001 µM) was -0.0006 and the “increase in dead-cell fraction” value ([5]; 0.003162 µM) was -0.001. The “increase in dead-cell fraction” value ([5]; 0.01 µM) was -0.0033, the “increase in dead-cell fraction” value ([5]; 0.03162 µM) was -0.0012 and the “increase in dead-cell fraction” value ([5]; 0.1 µM) was -0.0017. For the same cell line, the “increase in dead-cell fraction” value ([5]; 0.3162 µM) was 0.0031, the “increase in dead-cell fraction” value ([5]; 1 µM) was 0.0053 and the “increase in dead-cell fraction” value ([5]; 3.162 µM) was 0.0031. The “increase in dead-cell fraction” value ([6]; 0.0001 µM) was -0.0012, the “increase in dead-cell fraction” value ([6]; 0.0003162 µM) was -0.0001 and the “increase in dead-cell fraction” value ([6]; 0.001 µM) was 0.0032. The “increase in dead-cell fraction” value ([6]; 0.003162 µM) was 0.0022, the “increase in dead-cell fraction” value ([6]; 0.01 µM) was 0.0023 and the “increase in dead-cell fraction” value ([6]; 0.03162 µM) was 0.0691. The “increase in dead-cell fraction” value ([7]; 0.0003162 µM) was -0.0001, the “increase in dead-cell fraction” value ([7]; 0.001 µM) was 0.0011 and the “increase in dead-cell fraction” value ([7]; 0.003162 µM) was 0.0102. For the same cell line, the “increase in dead-cell fraction” value ([7]; 0.01 µM) was 0.043, the “increase in dead-cell fraction” value ([7]; 0.03162 µM) was 0.0716 and the “increase in dead-cell fraction” value ([7]; 0.1 µM) was 0.0731. For the same cell line, the “increase in dead-cell fraction” value ([7]; 0.3162 µM) was 0.0685, the “increase in dead-cell fraction” value ([7]; 1 µM) was 0.0784 and the “increase in dead-cell fraction” value ([7]; 3.162 µM) was 0.0756. For the same cell line, the “increase in dead-cell fraction” value ([8]; 0.001 µM) was 0.0025, the “increase in dead-cell fraction” value ([8]; 0.003162 µM) was 0.0078 and the “increase in dead-cell fraction” value ([8]; 0.01 µM) was 0.0057. For the same cell line, the “increase in dead-cell fraction” value ([8]; 0.03162 µM) was 0.0038, the “increase in dead-cell fraction” value ([8]; 0.1 µM) was 0.0034 and the “increase in dead-cell fraction” value ([8]; 0.3162 µM) was 0.0041. For the same cell line, the “increase in dead-cell fraction” value ([8]; 1 µM) was 0.0016, the “increase in dead-cell fraction” value ([8]; 3.162 µM) was 0.0166 and the “increase in dead-cell fraction” value ([8]; 10 µM) was 0.131. The “increase in dead-cell fraction” value ([9]; 0.0001 µM) was 0.0016, the “increase in dead-cell fraction” value ([9]; 0.0003162 µM) was 0.0039 and the “increase in dead-cell fraction” value ([9]; 0.001 µM) was 0.0043. For the same cell line, the “increase in dead-cell fraction” value ([9]; 0.003162 µM) was 0.0044, the “increase in dead-cell fraction” value ([9]; 0.01 µM) was 0.0071 and the “increase in dead-cell fraction” value ([9]; 0.03162 µM) was 0.105. For the same cell line, the “increase in dead-cell fraction” value ([9]; 0.1 µM) was 0.359, the “increase in dead-cell fraction” value ([9]; 0.3162 µM) was 0.389 and the “increase in dead-cell fraction” value ([9]; 1 µM) was 0.311. The “increase in dead-cell fraction” value ([10]; 0.001 µM) was 0.0031, the “increase in dead-cell fraction” value ([10]; 0.003162 µM) was 0.0013 and the “increase in dead-cell fraction” value ([10]; 0.01 µM) was 0.0054. For the same cell line, the “increase in dead-cell fraction” value ([10]; 0.03162 µM) was 0.0111, the “increase in dead-cell fraction” value ([10]; 0.1 µM) was 0.0037 and the “increase in dead-cell fraction” value ([10]; 0.3162 µM) was -0.0005. For the same cell line, the “increase in dead-cell fraction” value ([10]; 1 µM) was -0.0028, the “increase in dead-cell fraction” value ([10]; 3.162 µM) was 0.0128 and the “increase in dead-cell fraction” value ([10]; 10 µM) was 0.0025. For the same cell line, the “increase in dead-cell fraction” value ([11]; 0.0001 µM) was -0.0007, the “increase in dead-cell fraction” value ([11]; 0.0003162 µM) was 0.0052 and the “increase in dead-cell fraction” value ([11]; 0.001 µM) was -0.0013. The “increase in dead-cell fraction” value ([11]; 0.003162 µM) was -0.0006, the “increase in dead-cell fraction” value ([11]; 0.01 µM) was -0.0015 and the “increase in dead-cell fraction” value ([11]; 0.03162 µM) was 0.0024. The “increase in dead-cell fraction” value ([11]; 0.1 µM) was -0.0007, the “increase in dead-cell fraction” value ([11]; 0.3162 µM) was 0.0097 and the “increase in dead-cell fraction” value ([11]; 1 µM) was 0.25. The “increase in dead-cell fraction” value ([12]; 0.001 µM) was 0.0005, the “increase in dead-cell fraction” value ([12]; 0.003162 µM) was -0.0003 and the “increase in dead-cell fraction” value ([12]; 0.01 µM) was 0.0039. The “increase in dead-cell fraction” value ([12]; 0.03162 µM) was 0.003, the “increase in dead-cell fraction” value ([12]; 0.1 µM) was 0.0014 and the “increase in dead-cell fraction” value ([12]; 0.3162 µM) was 0.0018. For the same cell line, the “increase in dead-cell fraction” value ([12]; 1 µM) was 0.0017, the “increase in dead-cell fraction” value ([12]; 3.162 µM) was 0.0048 and the “increase in dead-cell fraction” value ([12]; 10 µM) was 0.0109.

— the supplement of paper PMC9663587
